Data from ChEMBL document CHEMBL4014283, “Structural insights of SmKDAC8 inhibitors: Targeting Schistosoma epigenetics through a combined structure-based 3D QSAR, in vitro and synthesis strategy” (Bioorg Med Chem, 2017).
Calls of active or inactive are those of the source. The rule behind the calls is not given here.

Legend:
[1] = molecular target: T1, Histone deacetylase 8 (Schistosoma mansoni) (UniProt A5H660); test: Inhibition of Schistosoma mansoni KDAC8 at 30 uM using (FAM)-labeled peptide as substrate after 60 mins by microfluidic assay
T1 sequence (whole entry): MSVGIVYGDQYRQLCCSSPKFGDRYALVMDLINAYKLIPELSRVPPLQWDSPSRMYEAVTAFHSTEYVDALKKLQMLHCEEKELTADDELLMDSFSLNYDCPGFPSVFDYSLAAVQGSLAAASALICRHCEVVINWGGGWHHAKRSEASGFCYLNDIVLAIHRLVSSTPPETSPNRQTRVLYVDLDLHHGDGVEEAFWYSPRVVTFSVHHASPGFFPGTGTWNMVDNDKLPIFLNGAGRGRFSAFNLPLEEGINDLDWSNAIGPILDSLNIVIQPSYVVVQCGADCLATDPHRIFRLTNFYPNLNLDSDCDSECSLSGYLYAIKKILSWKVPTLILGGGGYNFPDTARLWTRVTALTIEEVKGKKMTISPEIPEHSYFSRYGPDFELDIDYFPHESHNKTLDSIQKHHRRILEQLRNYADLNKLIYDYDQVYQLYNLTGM

Histone deacetylase 8 = molecular target: T2, Histone deacetylase 8 (Schistosoma mansoni, UniProt A5H660); test: Inhibition of Schistosoma mansoni KDAC8 using (FAM)-labeled peptide as substrate after 60 mins by microfluidic assay; details: read-out: IC50
T2 sequence (A5H660 whole entry): T1 sequence (whole entry)

Row | SMILES | inhibition [1] | IC50 (Histone deacetylase 8) [µM]
1 | CSCC[C@@H]1N=C(c2ccccc2)c2ccccc2NC1=O | 0% | > 30
2 | CC(C)C[C@@H]1N=C(c2ccccc2)c2ccccc2N(CCCCC(=O)O)C1=O | 0% | > 30
3 | O=C(C[C@@H]1N=C(c2ccccc2)c2ccccc2NC1=O)NC(c1ccccc1)(c1ccccc1)c1ccccc1 | 0% | > 30
4 | O=C(O)CCCCN1C(=O)[C@H](CC(=O)O)N=C(c2ccccc2)c2ccccc21 | 0% | > 30
5 | O=C(CC[C@H]1N=C(c2ccccc2)c2ccccc2NC1=O)NO | 24% | > 30
6 | COC(=O)CCCCN1C(=O)[C@H](CCC(=O)OC(C)(C)C)N=C(c2ccccc2)c2ccccc21 | 0% | > 30
7 | CC(C)C[C@@H]1N=C(c2ccccc2)c2ccccc2NC1=O | 0% | > 30
8 | O=C(O)CCCCN1C(=O)[C@H](CC(=O)NC(c2ccccc2)(c2ccccc2)c2ccccc2)N=C(c2ccccc2)c2ccccc21 | 0% | > 30
9 | O=C(CCCCN1C(=O)[C@H](CC(=O)NC(c2ccccc2)(c2ccccc2)c2ccccc2)N=C(c2ccccc2)c2ccccc21)NO | 52.3% | 26.3
10 | C[C@@H](O)[C@@H]1N=C(c2ccccc2)c2ccccc2N(CCCCC(=O)NO)C1=O | 0.91% | > 30
11 | CC(C)[C@@H]1NC(=O)[C@H]2CCCN2C(=O)[C@@H]2CCCN2C(=O)C[C@@H](C(=O)NCCCC(=O)NO)NC1=O | 21 to 31.9% | > 30
12 | CC(C)[C@@H]1NC(=O)[C@@H]2CCCN2C(=O)[C@@H]2CCCN2C(=O)C[C@@H](C(=O)NCCCC(=O)NO)NC1=O | 32% | > 30
13 | C[C@@H]1N=C(c2ccccc2)c2ccccc2N(CCCCC(=O)NO)C1=O | 16.9% | > 30
14 | O=C(O)CCCCN1C(=O)[C@H](Cc2ccccc2)N=C(c2ccccc2)c2ccccc21 | 0% | > 30
15 | C[C@@H](OCc1ccccc1)[C@@H]1N=C(c2ccccc2)c2ccccc2N(CCCCC(=O)NO)C1=O | 20.5% | > 30
16 | O=C(CCCCN1C(=O)[C@@H](CS)N=C(c2ccccc2)c2ccccc21)NO | 57% | 20.9
17 | NC(=O)CC[C@@H]1N=C(c2ccccc2)c2ccccc2N(CCCCC(=O)NO)C1=O | 11.6% | > 30
18 | O=C(O)CC[C@H]1N=C(c2ccccc2)c2ccccc2NC1=O | 0% | > 30
19 | O=C(CC[C@@H]1N=C(c2ccccc2)c2ccccc2NC1=O)NO | 25.9% | > 30
20 | Nc1ccccc1NC(=O)c1ccc(-c2cn(CCc3ccsc3)nn2)cc1 | inactive | > 30
21 | COC(=O)CCCCN1C(=O)[C@H](CC(C)C)N=C(c2ccccc2)c2ccccc21 | 0% | > 30
22 | CC(C)(C)SC[C@H]1N=C(c2ccccc2)c2ccccc2NC1=O | 0% | > 30
23 | COC(=O)CCCCN1C(=O)[C@@H](CSC(C)(C)C)N=C(c2ccccc2)c2ccccc21 | 0% | > 30

Row | SMILES | inhibition [1] | IC50 (Histone deacetylase 8) [µM]
24 | CC(=O)SCC/C=C/[C@@H]1CC(=O)NCc2ccc(cc2)C2=N[C@@](C)(CS2)C(=O)N[C@@H](C(C)C)C(=O)O1 | inactive | > 30
25 | CC(C)(C)Oc1ccc(C[C@@H]2N=C(c3ccccc3)c3ccccc3N(CCCCC(=O)O)C2=O)cc1 | 0% | > 30
26 | Nc1ccccc1NC(=O)c1ccc(CNC(=O)OCc2cccnc2)cc1 [ENTINOSTAT] | inactive | > 30
27 | CC(C)(C)OC(=O)CC[C@@H]1N=C(c2ccccc2)c2ccccc2NC1=O | 0% | > 30
28 | COC(=O)CCCCN1C(=O)[C@H](CCC(=O)NC(c2ccccc2)(c2ccccc2)c2ccccc2)N=C(c2ccccc2)c2ccccc21 | 0% | > 30
29 | O=C(CCCCN1C(=O)[C@H](CC(=O)NO)N=C(c2ccccc2)c2ccccc21)NO | 5.21% | > 30
30 | O=C(CCCCN1C(=O)[C@H](CCC(=O)NC(c2ccccc2)(c2ccccc2)c2ccccc2)N=C(c2ccccc2)c2ccccc21)NO | 32.1% | > 30
31 | CC(C)(C)OC(=O)CC[C@H]1N=C(c2ccccc2)c2ccccc2NC1=O | 12.3% | > 30
32 | O=C(CCCCN1C(=O)[C@H](Cc2ccc(O)cc2)N=C(c2ccccc2)c2ccccc21)NO | 0% | > 30
33 | O=C(O)CCCCN1C(=O)[C@H](CCC(=O)O)N=C(c2ccccc2)c2ccccc21 | 0% | > 30
34 | CC(C)(C)SC[C@H]1N=C(c2ccccc2)c2ccccc2N(CCCCC(=O)O)C1=O | 0% | > 30
35 | COC(=O)CCCCN1C(=O)[C@H](COC(C)(C)C)N=C(c2ccccc2)c2ccccc21 | 0% | > 30
36 | CC(C)C[C@@H]1N=C(c2ccccc2)c2ccccc2N(CCCCC(=O)NO)C1=O | 23.1% | > 30
37 | O=C(CCCNC(=O)C[C@@H]1N=C(c2ccccc2)c2ccccc2NC1=O)NO | 70.3% | 12.8
38 | C[C@@H]1N=C(c2ccccc2)c2ccccc2N(CCCCC(=O)O)C1=O | 0% | > 30
39 | CCC(C)[C@@H]1N=C(c2ccccc2)c2ccccc2N(CCCCC(=O)NO)C1=O (single isomer, unassigned) | 11.7% | > 30
40 | O=C(O)CC[C@@H]1N=C(c2ccccc2)c2ccccc2N(CCCCC(=O)NO)C1=O | 13.4% | > 30
41 | O=C(O)CC[C@@H]1N=C(c2ccccc2)c2ccccc2NC1=O | 0% | > 30
42 | CC(C)(C)OC(=O)CC[C@@H]1N=C(c2ccccc2)c2ccccc2N(CCCCC(=O)NO)C1=O | 24.9% | > 30
43 | CC(C)(C)OC[C@@H]1N=C(c2ccccc2)c2ccccc2N(CCCCC(=O)O)C1=O | 0% | > 30
44 | COC(=O)CCCCN1C(=O)[C@H](CCSC)N=C(c2ccccc2)c2ccccc21 | 0% | > 30
45 | CC(C)(C)OC(=O)CC[C@@H]1N=C(c2ccccc2)c2ccccc2N(CCCCC(=O)O)C1=O | 0% | > 30
46 | O=C(CCCCN1C(=O)[C@H](Cc2cnc[nH]2)N=C(c2ccccc2)c2ccccc21)NO | 4.11% | > 30

Row | SMILES | inhibition [1] | IC50 (Histone deacetylase 8) [µM]
47 | COC(=O)CCCCN1C(=O)[C@H](Cc2ccccc2)N=C(c2ccccc2)c2ccccc21 | 0% | > 30
48 | CC(OCc1ccccc1)[C@@H]1N=C(c2ccccc2)c2ccccc2NC1=O (single isomer, unassigned) | 0% | > 30
49 | COC(=O)CCCCN1C(=O)[C@H](C)N=C(c2ccccc2)c2ccccc21 | 0% | > 30
50 | O=C(CCCCN1C(=O)[C@H](CCC(=O)NO)N=C(c2ccccc2)c2ccccc21)NO | 33.5% | > 30
51 | CC(C)(C)OC(=O)C[C@@H]1N=C(c2ccccc2)c2ccccc2N(CCCCC(=O)NO)C1=O | 38.8% | > 30
52 | CC(C)(C)OC(=O)NCCCC[C@@H]1N=C(c2ccccc2)c2ccccc2N(CCCCC(=O)NO)C1=O | 25.1% | > 30
53 | CC(C)(C)OC[C@@H]1N=C(c2ccccc2)c2ccccc2NC1=O | 0% | > 30
54 | O=C(CCCCN1C(=O)[C@H](Cc2cncn2C(c2ccccc2)(c2ccccc2)c2ccccc2)N=C(c2ccccc2)c2ccccc21)NO | 3.81% | > 30
55 | Cc1c(C)c(S(=O)(=O)NC(=N)NCCC[C@@H]2N=C(c3ccccc3)c3ccccc3N(CCCCC(=O)NO)C2=O)c(C)c2c1OC(C)(C)C2 | 0% | > 30
56 | CC[C@H](C)[C@@H]1N=C(c2ccccc2)c2ccccc2N(CCCCC(=O)O)C1=O | 0% | > 30
57 | O=C(O)C[C@@H]1N=C(c2ccccc2)c2ccccc2NC1=O | 0% | > 30
58 | O=C(C[C@@H]1N=C(c2ccccc2)c2ccccc2NC1=O)NO | 0% | > 30
59 | CSCC[C@@H]1N=C(c2ccccc2)c2ccccc2N(CCCCC(=O)O)C1=O | 0% | > 30
60 | CC(C)[C@@H]1NC(=O)[C@H]2CCCN2C(=O)[C@@H]2CCCN2C(=O)C[C@H](C(=O)NCCCC(=O)NO)NC1=O | < 26% | > 30
61 | CC(C)(C)OC(=O)NCCCC[C@@H]1N=C(c2ccccc2)c2ccccc2N(CCCCC(=O)O)C1=O | 0% | > 30
62 | CC(C)(C)OC(=O)n1cc(C[C@@H]2N=C(c3ccccc3)c3ccccc3NC2=O)c2ccccc21 | 11.9% | > 30
63 | CC(C)(C)OC(=O)n1c(C[C@@H]2N=C(c3ccccc3)c3ccccc3N(CCCCC(=O)NO)C2=O)cc2ccccc21 | 12.5% | > 30
64 | O=C(O)C[C@H]1N=C(c2ccccc2)c2ccccc2NC1=O | 0% | > 30
65 | O=C(C[C@H]1N=C(c2ccccc2)c2ccccc2NC1=O)NO | 0% | > 30
66 | CC(C)(C)OC(=O)C[C@@H]1N=C(c2ccccc2)c2ccccc2N(CCCCC(=O)O)C1=O | 0% | > 30
67 | O=C1Nc2ccccc2C(c2ccccc2)=N[C@H]1Cc1ccccc1 | 0% | > 30
